In PubChem BioAssay AID1963973 (Molecular Pharmacology Branch, DTP, NCI, 2024):

System: 883617-216-R-J1-PDC tumor spheroids, viability
Test: Anticancer human tumor 883617-216-R-J1-PDC patient-derived bladder carcinoma cell line growth inhibition [PI3K]
Settings: spheroids with HUVEC and MSC; for IC50: curve of first compound; for viability, T/C: stronger effect = lower value
How it was run: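 Targeted small molecules plus PI3K inhibitors, half-log dose series from Cmax (default top 10 microM), were applied to heterotypic spheroids of cancer cells with HUVEC and MSCs. Viability indicated growth inhibition.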

[1] = second compound 0.0316 µM, first compound 0.0316 µM
[2] = second compound 0.0316 µM, first compound 0.1 µM
[3] = second compound 0.0316 µM, first compound 0.316 µM
[4] = second compound 0.0316 µM, first compound 1 µM
[5] = second compound 0.0316 µM, first compound 3.16 µM
[6] = second compound 0.0316 µM, first compound 10 µM
[7] = second compound 0.1 µM, first compound 0.0316 µM
[8] = second compound 0.1 µM, first compound 0.1 µM
[9] = second compound 0.1 µM, first compound 0.316 µM
[10] = second compound 0.1 µM, first compound 1 µM
[11] = second compound 0.1 µM, first compound 3.16 µM
[12] = second compound 0.1 µM, first compound 10 µM
[13] = second compound 0.316 µM, first compound 0.0316 µM
[14] = second compound 0.316 µM, first compound 0.1 µM
[15] = second compound 0.316 µM, first compound 0.316 µM
[16] = second compound 0.316 µM, first compound 1 µM
[17] = second compound 0.316 µM, first compound 3.16 µM
[18] = second compound 0.316 µM, first compound 10 µM
[19] = second compound 1 µM, first compound 0.0316 µM
[20] = second compound 1 µM, first compound 0.1 µM
[21] = second compound 1 µM, first compound 0.316 µM
[22] = second compound 1 µM, first compound 1 µM
[23] = second compound 1 µM, first compound 3.16 µM
[24] = second compound 1 µM, first compound 10 µM
[25] = second compound 0.00316 µM, first compound 0.0316 µM
[26] = second compound 0.00316 µM, first compound 0.1 µM
[27] = second compound 0.00316 µM, first compound 0.316 µM
[28] = second compound 0.00316 µM, first compound 1 µM
[29] = second compound 0.00316 µM, first compound 3.16 µM
[30] = second compound 0.00316 µM, first compound 10 µM
[31] = second compound 0.01 µM, first compound 0.0316 µM
[32] = second compound 0.01 µM, first compound 0.1 µM
[33] = second compound 0.01 µM, first compound 0.316 µM
[34] = second compound 0.01 µM, first compound 1 µM
[35] = second compound 0.01 µM, first compound 3.16 µM
[36] = second compound 0.01 µM, first compound 10 µM
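Note: spheroids exposed to agents for 7 days before the viability read.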

Structure (SMILES): C=CC(=O)N1CCN(c2nc(=O)n(-c3c(C)ccnc3C(C)C)c3nc(-c4c(O)cccc4F)c(F)cc23)C(C)C1 (stereo unspecified) + Cc1nc(NC(=O)N2CCCC2C(N)=O)sc1-c1ccnc(C(C)(C)C(F)(F)F)c1
- IC50 (second compound 0.0316 µM): < 0.0316 µM
- IC50 (second compound 0.1 µM): < 0.0316 µM
- IC50 (second compound 0.316 µM): < 0.0316 µM
- IC50 (second compound 1 µM): < 0.0316 µM
- IC50 (second compound 3.16 µM): < 0.0316 µM
- IC50 (second compound 10 µM): < 0.0316 µM
- viability, T/C [1]: 56.5%
- viability, T/C [2]: 45.7%
- viability, T/C [3]: 44.1%
- viability, T/C [4]: 51.8%
- viability, T/C [5]: 70.4%
- viability, T/C [6]: 60.9%
- viability, T/C [7]: 37.3%
- viability, T/C [8]: 35.9%
- viability, T/C [9]: 40.3%
- viability, T/C [10]: 34.9%
- viability, T/C [11]: 52.9%
- viability, T/C [12]: 46.2%
- viability, T/C [13]: 32.5%
- viability, T/C [14]: 22.4%
- viability, T/C [15]: 25.6%
- viability, T/C [16]: 27.5%
- viability, T/C [17]: 34.6%
- viability, T/C [18]: 35%
- viability, T/C [19]: 14.7%
- viability, T/C [20]: 12.8%
- viability, T/C [21]: 13.9%
- viability, T/C [22]: 17.1%
- viability, T/C [23]: 26.2%
- viability, T/C [24]: 20.5%
- viability, T/C (second compound 3.16 µM, first compound 0.0316 µM): 10.3%
- viability, T/C (second compound 3.16 µM, first compound 0.1 µM): 6.71%
- viability, T/C (second compound 3.16 µM, first compound 0.316 µM): 6.68%
- viability, T/C (second compound 3.16 µM, first compound 1 µM): 9.84%
- viability, T/C (second compound 3.16 µM, first compound 3.16 µM): 12.8%
- viability, T/C (second compound 3.16 µM, first compound 10 µM): 11.2%
- viability, T/C (second compound 10 µM, first compound 0.0316 µM): 3.61%
- viability, T/C (second compound 10 µM, first compound 0.1 µM): 2.75%
- viability, T/C (second compound 10 µM, first compound 0.316 µM): 3.18%
- viability, T/C (second compound 10 µM, first compound 1 µM): 4.91%
- viability, T/C (second compound 10 µM, first compound 3.16 µM): 7.96%
- viability, T/C (second compound 10 µM, first compound 10 µM): 6.43%

Structure (SMILES): C=CC(=O)N1CCN(c2nc(=O)n(-c3c(C)ccnc3C(C)C)c3nc(-c4c(O)cccc4F)c(F)cc23)C(C)C1 (stereo unspecified) + COc1c(OCCCN2CCOCC2)ccc2c3n(c(=NC(=O)c4cnc(N)nc4)nc12)CCN3
- IC50 (second compound 0.00316 µM): < 0.0316 µM
- IC50 (second compound 0.01 µM): < 0.0316 µM
- IC50 (second compound 0.0316 µM): < 0.0316 µM
- IC50 (second compound 0.1 µM): < 0.0316 µM
- IC50 (second compound 0.316 µM): < 0.0316 µM
- IC50 (second compound 1 µM): < 0.0316 µM
- viability, T/C [25]: 54.8%
- viability, T/C [26]: 40.3%
- viability, T/C [27]: 44%
- viability, T/C [28]: 46.3%
- viability, T/C [29]: 52.3%
- viability, T/C [30]: 53.9%
- viability, T/C [31]: 46%
- viability, T/C [32]: 34.9%
- viability, T/C [33]: 33.4%
- viability, T/C [34]: 41.1%
- viability, T/C [35]: 43.5%
- viability, T/C [36]: 38.7%
- viability, T/C [1]: 21.4%
- viability, T/C [2]: 19.8%
- viability, T/C [3]: 16.6%
- viability, T/C [4]: 22.3%
- viability, T/C [5]: 24.1%
- viability, T/C [6]: 24.5%
- viability, T/C [7]: 8.54%
- viability, T/C [8]: 3.86%
- viability, T/C [9]: 6.45%
- viability, T/C [10]: 8.64%
- viability, T/C [11]: 10.2%
- viability, T/C [12]: 9.28%
- viability, T/C [13]: 1.88%
- viability, T/C [14]: 1.7%
- viability, T/C [15]: 1.81%
- viability, T/C [16]: 2.12%
- viability, T/C [17]: 2.85%
- viability, T/C [18]: 2.77%
- viability, T/C [19]: 1.07%
- viability, T/C [20]: 0.62%
- viability, T/C [21]: 0.69%
- viability, T/C [22]: 0.95%
- viability, T/C [23]: 1.99%
- viability, T/C [24]: 0.95%

Structure (SMILES): C[C@@H](NC(=O)c1ncnc(N)c1Cl)c1ncc(C(=O)Nc2cc(C(F)(F)F)c(Cl)cn2)s1 + COc1c(OCCCN2CCOCC2)ccc2c3n(c(=NC(=O)c4cnc(N)nc4)nc12)CCN3
- IC50 (second compound 0.00316 µM): > 10 µM
- IC50 (second compound 0.01 µM): > 10 µM
- IC50 (second compound 0.0316 µM): < 0.0316 µM
- IC50 (second compound 0.1 µM): < 0.0316 µM
- IC50 (second compound 0.316 µM): < 0.0316 µM
- IC50 (second compound 1 µM): < 0.0316 µM
- viability, T/C [25]: 86.2%
- viability, T/C [26]: 83.1%
- viability, T/C [27]: 86.1%
- viability, T/C [28]: 96%
- viability, T/C [29]: 70.9%
- viability, T/C [30]: 59.9%
- viability, T/C [31]: 88.2%
- viability, T/C [32]: 71.5%
- viability, T/C [33]: 72.5%
- viability, T/C [34]: 87.5%
- viability, T/C [35]: 71.5%
- viability, T/C [36]: 56.6%
- viability, T/C [1]: 38.3%
- viability, T/C [2]: 41.2%
- viability, T/C [3]: 42.1%
- viability, T/C [4]: 50.4%
- viability, T/C [5]: 40.8%
- viability, T/C [6]: 30.9%
- viability, T/C [7]: 19%
- viability, T/C [8]: 20.6%
- viability, T/C [9]: 23.1%
- viability, T/C [10]: 22%
- viability, T/C [11]: 20.5%
- viability, T/C [12]: 14.5%
- viability, T/C [13]: 7.26%
- viability, T/C [14]: 7.17%
- viability, T/C [15]: 7.53%
- viability, T/C [16]: 7.56%
- viability, T/C [17]: 9.7%
- viability, T/C [18]: 5.01%
- viability, T/C [19]: 5.51%
- viability, T/C [20]: 5.13%
- viability, T/C [21]: 5.48%
- viability, T/C [22]: 5.61%
- viability, T/C [23]: 5.29%
- viability, T/C [24]: 2.13%
